US8466185B2, “Methods and assays for detecting and treating hypoglycemia” (priority 2008, dated 2013)
“Also recorded” adds a separate entry of the source.

Tests used:
human islets [1] = experiment: in vitro perifusion, glucagon secretion from human islets; assay type: cell-based; conditions: for effect on basal glucagon secretion or glucagon responses to glutamate: 100 μM
Description: (§3) A high-capacity, automated perifusion system was developed to dynamically measure hormone secretion from pancreatic islets. A low pulsatility peristaltic pump pushed HEPES-buffered solution (mM: 125 NaCl, 5.9 KCl, 2.56 CaCl2, 1 MgCl2, 25 HEPES, and 0.1% BSA; pH 7.4; and a perifusion rate of 100 μL/min) through a column containing 100 pancreatic islets immobilized in Bio-Gel P-4 Gel (BioRad, Hercules, Calif.). Except otherwise stated, glucose concentration was adjusted to 3 mM for all experiments. Stimuli were applied with the perifusion buffer. The perifusate was collected in an automatic fraction collector designed for a 96 well plate format. The columns containing the islets and the perifusion solutions were kept at 37° C., and the perifusate in the collecting plate was kept at <4° C. Perifusates were collected every minute. Hormone release in the perifusate was determined with the human or mouse Endocrine LINCOplex Kit following manufacturer's instructions (Linco research, St. Charles, Mo.).

mouse islets [2] = experiment: perifusion, glucagon secretion from mouse islets; assay type: cell-based, mouse (C57Bl/6)
Description: as §3

C57BL/6 mice = experiment: in vivo responses to iGluR agonists injected i.p.; design: species or system mouse
Description: (§1) We examined in vivo responses to iGluR agonists by injecting C57BL/6 mice i.p. with either PBS (n=4), monosodium glutamate (30 mg/kg; n=7), or AMPA (15 mg/kg; n=8). To determine whether blocking iGluRs exacerbates insulin-induced hypoglycemia, we injected the AMPA/kainate iGluR antagonist NBQX (Tocris, Ellisville, Mo.) i.p. at 20 mg/kg 30 minutes before mice were treated with insulin to induce hypoglycemia.

human islets [3] = experiment: in vitro perifusion, insulin release from human islets; conditions: 100 μM
Description: as §3

monkey islets [4] = experiment: in vitro perifusion, insulin release from monkey islets; conditions: 100 μM; not shown
[5] = system: human islets and dispersed single islet cells; experiment: [Ca^2+]i imaging (Fura-2) of human islets and dispersed islet cells; assay type: cell-based; conditions: CNQX 10 μM
Description: (§2) Glucose was added to give a final concentration of 3 mM. Islets or dispersed islet cells were incubated in Fura-2 AM (2 μM; 1 hour) and placed in a closed small-volume imaging chamber (Warner Instruments, Hamden, Conn.). Stimuli were applied with the bathing solution. Islets loaded with Fura-2 were excited alternatively at 340 and 380 nm with a monochromator light source (Cairn. Research Optoscan Monochromator, Cairn Research Ltd, Faversham, UK). Images were acquired with a Hamamatsu camera (Hamamatsu Corp, Japan) attached to a Zeiss Axiovert 200 microscope (Carl Zeiss, Jena, Germany). Changes in the 340/380 fluorescence emission ratio over time were analyzed in individual islets and dispersed cells using Kinetic Imaging AQM Advance software (Kinetic Imaging, N.C.). Peak changes in the fluorescence ratio constituted the response amplitude.

[6] = system: monkey islets and dispersed single islet cells; experiment: [Ca^2+]i imaging (Fura-2) of monkey islets and islet cells; assay type: cell-based, monkey (Macacca fascicularis); conditions: nifedipine 10 μM; for inhibition of [Ca^2+]i responses to kainate: CNQX 10 μM, La^3+ 30 μM
Description: as §2, with “Imaging of [Ca^2+]i was performed as described elsewhere (Cabrera et al., 2006). […] Glucose” for “Glucose”

human islets [7] = assay type: cell-based; conditions: CNQX 10 μM; measured at 8 minutes after reducing glucose
Description: Perifusion of the islets was stopped after addition of the stimulus to allow the islet secretory products to accumulate and then resumed after 10 minutes.

monkey islets [8] = experiment: microfluorometric determination of endogenous glutamate release from islets; assay type: cell-based; conditions: kainate 100 μM; KCl 30 mM
Description: Endogenous glutamate release from pancreatic islets was measured with the Amplex Red Glutamic Acid Assay Kit (Molecular Probes) adapted for microscopic microfluorometric detection (Akagi et al., 2003). In this assay, released glutamate is a substrate in an enzymatic chain reaction that generates the highly fluorescent product resorufin (Molecular Probes, Eugene, Oreg.). L-glutamate is oxidized by glutamate oxidase to produce α-ketoglutarate, NH4, and H2O2. Hydrogen peroxide reacts with the Amplex Red reagent in a reaction catalyzed by horseradish peroxidase to generate resorufin. Pancreatic islets were allowed to attach to a glass coverslip previously coated with poly-D-lysine. The coverslip was mounted in a closed small-volume imaging chamber (Warner Instruments) and perifused with the HEPES-buffered solution containing the stimuli. Resorufin fluorescence was excited at 510 nm, and the emission recorded at 590 nm using the same imaging system used to measure [Ca^2+]i (see above).

[9] = system: isolated human islet cells; experiment: whole-cell patch clamp recordings of dispersed human islet cells; assay type: cell-based; conditions: NBQX 10 μM; kainate 100 μM
Description: Membrane currents were measured using whole-cell patch clamp recordings of dispersed human islet cells. All recordings were amplified using an EPC10 patch-clamp amplifier and digitized and analyzed using Patchmaster software (Heka Elektronik, Lambrecht, Germany). Pipettes were pulled from borosilicate glass capillaries on a horizontal programmable puller (DMZ Universal Puller, Zeitz-Instrumente, Augsburg, Germany). Pipettes with a resistance of 5-7 MΩ were filled with a pipette solution containing (in mM): 150 NMG (N-methyl-D-Glucamine), 10 EGTA, 1 MgCl2, 2 CaCl2, 5 HEPES and 3 Mg-ATP (pH 7.15). The bath solution contained (in mM): 138 NaCl, 5.6 KCl, 1.2 MgCl2, 2.6 CaCl2, 5 HEPES and 10 TEA (pH7.4). Cells were voltage-clamped at −70 mV. Ligands (e.g. kainate) were applied using the SF-77B Perfusion Fast-Step system (Warner Instruments, Hamden, Conn.), which allows rapid change of solutions bathing a single cell or membrane patch attached to a patch electrode. […] Thus, it is most likely that cells responding to kainate in our electrophysiological experiments were α-cells.

mice [10] = assay type: in vivo, mouse; conditions: NBQX 20 mg/kg i.p.
Description: as §1
In initial experiments, mice were injected with insulin (1.5 U/kg; i.p.) to induce hypoglycemia.

mice [11] = experiment: hyperinsulinemic-hypoglycemic clamp in conscious mice; assay type: in vivo, mouse; conditions: NBQX 10 mg/kg iv versus saline
Description: To provide a standardized hypoglycemic stimulus we further conducted studies using the hyperinsulinemic-hypoglycemic clamp. At least 4 days before the experiments, mice were anesthetized with isoflurane, and an indwelling catheter was inserted in the left jugular vein and externalized through an incision in a skin flap behind the head. Mice were fasted for 4 hours and placed in individual plastic containers for tail cut sampling. […] A priming dose of insulin (100 mU/kg) was administered, followed by a constant infusion rate of 20 mU/kg/min (Actrapid, Novo Nordisk). The plasma glucose concentration was determined at 10 min intervals using a One Touch Ultra glucose meter. Glucose (30%) was infused at a variable rate to maintain the plasma glucose concentration at the hypoglycemic levels (˜3 mM). At time 50 min, a hyperinsulinemic-hypoglycemic clamp was achieved. Blood glucose levels were kept at the steady state (3 mM) and NBQX was administered as a bolus (10 mg/kg) at time 60 min, followed by infusion (10 mg/kg) until the end of the experiment. A control experiment was performed using saline (0.9% NaCl) following the same protocol used for NBQX. […] Animals were euthanized by an over-dose of pentobarbital.

mouse islets [12] = experiment: perifusion of mouse islets with β cells destroyed by streptozotocin versus intact islets; assay type: cell-based; conditions: arginine 5 mM; streptozotocin-treated versus intact islets
Description: This experiment was performed with mouse islets. Two samples were perifused in parallel (“a” and “b”). In “a” (blue curve and blue bar), but not in “b” (red curve and red bar) the β cells were selectively destroyed with streptozotocin. This absence of β cells generates type 1 diabetes-like condition in vitro. The glucagon release profile in panel “A” was obtained by using this model. […] Note that the non specific stimulus arginine is not able to differentiate a functionally impaired α cell in the absence of β cells.
At t=5 min, both samples were stimulated with 100 μM kainate for 5 min. The glucose was increased to 11 mM for 10 minutes and decreased again to 3 mM for the duration of the perifusion. At t=45 min, both samples (v) were stimulated with 5 mM Arginine. […] Kainate is a glutamate analog that is not metabolizable, and therefore a preferred agonist of the AMPA/Kainate receptors. Error bars represent the standards deviations for n=3 perifusions. Comparison were performed by an independent t-test.
For example, in some embodiments the present invention are directed to an in vitro model in which we destroy selectively the beta cells with, for example, streptozotocin, thus creating a situation that mimics type 1 diabetes. The treated islets are composed mainly of alpha cells. […] To examine if alpha cells in islets depleted of beta cells had impaired glutamate signaling, we stimulated them with kainate, an agonist for ionotropic glutamate receptors.

With `NC1(C(=O)O)C[C@H](C(=O)O)[C@H](C(=O)O)C1` (stereo partly shown) [ACPT-1] the “effect on basal glucagon secretion or glucagon responses to glutamate” value (“effect … to glutamate” for short) (human islets [1]) was “did not elicit changes in glucagon secretion; also recorded: did not affect basal glucagon secretion or glucagon responses to glutamate” and the “effect on basal or glutamate-induced glucagon secretion” value (mouse islets [2]; 100 μM) was “did not affect basal or glutamate-induced glucagon secretion; also recorded: did not elicit changes in glucagon secretion”.

In the case of `Cc1o[nH]c(=O)c1CC(N)C(=O)O` (stereo not shown) [AMPA], the “glucagon release / glucagon secretion” value (human islets [1]; agonist 100 μM, 3 mM glucose) is reported as “elicited strong glucagon secretion; also recorded: Increases in glucagon release could also be elicited”, the “glucagon release / secretion” value (mouse islets [2]; 100 μM) is reported as “stimulated glucagon secretion” and the “convulsions indicative of central nervous penetration” value (C57BL/6 mice; AMPA 15 mg/kg i.p.) is reported as “did not induce convulsions”. The plasma insulin concentrations (C57BL/6 mice; glutamate 30 mg/kg, AMPA 15 mg/kg, i.p.) was “not affected; also recorded: did not change”, the plasma glucagon concentrations (C57BL/6 mice; glutamate 30 mg/kg, AMPA 15 mg/kg, i.p., 30 minutes after treatment) was “increased plasma glucagon concentrations” and the plasma glucose concentrations (C57BL/6 mice; glutamate 30 mg/kg, AMPA 15 mg/kg, i.p., thirty minutes after injection) was “increased glucose levels; also recorded: increased plasma glucose concentrations”. The insulin release (human islets [3]) was “Neither kainate (100 μM), glutamate (100 μM), nor AMPA (100 μM) stimulated increases in insulin release” and the insulin release (monkey islets [4]) was “Neither kainate (100 μM), glutamate (100 μM), nor AMPA (100 μM) stimulated increases in insulin release”.

In the case of `N#Cc1cc2[nH]c(=O)c(=O)[nH]c2cc1[N+](=O)[O-]` [CNQX], the “block of glutamate-induced glucagon responses” value (human islets [1]; CNQX 10 μM) is reported as “could be blocked”, the “block of [Ca^2+]i responses to glutamate” value [5] is reported as “could be blocked” and the “inhibition of [Ca^2+]i responses to kainate” value [6] is reported as “inhibited; also recorded: blocked”. The “inhibition of glucagon response to lowering glucose from 6 mM to 1 mM” value (human islets [7]) was 54%.

For `NC(C(=O)O)(c1ccc(P(=O)(O)O)cc1)C1CC1` (stereo not shown) [CPPG], the “effect … to glutamate” value (human islets [1]) was “did not affect the glutamate-induced glucagon response; also recorded: did not affect basal glucagon secretion or glucagon responses to glutamate” and the “effect on basal or glutamate-induced glucagon secretion” value (mouse islets [2]; 100 μM) was “did not affect basal or glutamate-induced glucagon secretion; also recorded: did not affect the glutamate-induced glucagon response”.

In the case of `O=[N+]([O-])c1cc2nc(O)c(O)nc2cc1[N+](=O)[O-]` [DNQX], the “block of glutamate-stimulated glucagon release” value (mouse islets [2]; DNQX 10 μM, glutamate 100 μM) is reported as “blocked”.

With `[Cl-].[K+]` [KCl] the “glutamate release (resorufin fluorescence)” value (monkey islets [8]) was “induced significant glutamate release; also recorded: elicited large increases in glutamate release”.

In the case of `[La+3]` [La^3+], the “kainate-stimulated glucagon secretion in presence of Ca^2+ channel blockers” value (human islets [1]) is reported as “strongly diminished” and the “inhibition of [Ca^2+]i responses to kainate” value [6] is reported as “inhibited; also recorded: abolished”.

`NS(=O)(=O)c1cccc2c1c([N+](=O)[O-])cc1nc(O)c(O)nc12` [NBQX] was tested, and the “block of kainate-evoked inward currents” value [9] was “could be blocked”, the sedation (mice [10]) was “did not cause sedation” and the “insulin-induced drop in glucose plasma levels” value (mice [10]; insulin 1.5 U/kg i.p., not shown) was “increased the insulin-induced drop in glucose plasma levels”. For the same compound, the “glucose infusion rate needed to maintain glycemia (~3 mM)” value (mice [11]) was “needed larger infusion rates of glucose; also recorded: significantly larger” and the “plasma glucagon / glucagon secretion in response to hypoglycemia” value (mice [11]) was “lower; also recorded: significantly diminished”.

`N=C(N)NCCC[C@H](N)C(=O)O` [arginine] was tested, and the “arginine-induced glucagon release in absence versus presence of β cells” value (mouse islets [12]) was “not statistically different”.

`COC(=O)C1=C(C)NC(C)=C(C(=O)OC)C1c1ccccc1[N+](=O)[O-]` [nifedipine] was tested, and the “reduction of kainate-induced [Ca^2+]i responses” value [6] was roughly 60%.

`N[C@@]1(C(=O)O)CC[C@@H](C(=O)O)C1` [trans-ACPD] was tested, and the “effect … to glutamate” value (human islets [1]) was “did not affect basal glucagon secretion or glucagon responses to glutamate”, the “effect … to glutamate” value (human islets [1]; listed as tACPD) was “did not elicit changes in glucagon secretion” and the “effect on basal or glutamate-induced glucagon secretion” value (mouse islets [2]; 100 μM) was “did not affect basal or glutamate-induced glucagon secretion”. The “effect on basal or glutamate-induced glucagon secretion” value (mouse islets [2]; 100 μM, listed as tACPD) was “did not elicit changes in glucagon secretion”.
